# Source: publication PMC13128454, “Mutant p53 protein accumulation is selectively targetable by proximity-inducing drugs” (Nature Chemical Biology, 2025)
# pIC50: −log10 of the molar value.
# Key:
# [1] = tested on: cancer cell lines across DepMap; set-up: method as in DepMap; settings: antiproliferative; GDSC1; ref DepMap; read-out: median IC50 across DepMap; cited from earlier work
# [2] = tested on: PLK1 targets (cyclin B1, phospho-PLK-binding motif) in Halo–p53-Y220C ΔTAD–mCherry 293T cells; assay: western blot for PLK1 targets; type: cell-based; settings: 8.5 h, double thymidine block
# Method: (§1) Cells were split into a 10-cm dish at low confluency (20%) and grown overnight. Cells were synchronized with double thymidine block. Cells were treated with thymidine (2 mM) overnight and released into fresh medium for 8.5 h and then retreated with thymidine (2 mM) overnight. Cells were split into a six-well plate and released into medium containing compound for 8.5 h. Cells were pelleted and protein lysates were created using RIPA buffer containing Halt phosphatase and protease inhibitor (Thermo Fisher, 78440). Lysates were clarified by centrifugation (21,000g for 15 min) and the supernatant was denatured in 1× Lamelli buffer containing DTT by heating at 95 °C for 5 min. The resulting protein was loaded onto a Tris–acetate gel, transferred onto a PVDF membrane and treated with primary antibodies: cyclin B1 (D5C10, Cell Signaling Technologies, 12231T; 1:1,000) and phospho-PLK-binding motif (D73F6, Cell Signaling Technologies, 5243T; 1:1,000). The membrane was stained with IRDye 800CW goat anti-rabbit IgG secondary antibody (Licor Biosciences; 1:20,000) and imaged on an Odyssey DLx.
# [3] = tested on: PLK1 targets (cyclin B1, phospho-PLK-binding motif) in parental 293T cells; assay: western blot for PLK1 targets; type: cell-based; settings: 8.5 h, double thymidine block
# Method: as §1
# [4] = tested on: Halo–p53-Y220C ΔTAD–mCherry 293T cells; assay: 3-week culture with compound, mCherry^− fraction by FACS; type: cell-based; settings: 250 nM, 3 weeks
Compound,pIC50 [1],PLK1 substrates by western blot [2],PLK1 substrates by western blot [3],expansion of mCherry^− fraction [4]
CC[C@@H]1C(=O)N(C)c2cnc(Nc3ccc(C(=O)NC4CCN(C)CC4)cc3OC)nc2N1C1CCCC1 [BI2536],7.93,–,–,–
"CC[C@@H]1C(=O)N(C)c2cnc(Nc3ccc(C(=O)NCCOCCOCCOCCOCCC(=O)N4CCC(Nc5cccc6c5cc(C#CCNc5ccc(S(C)(=O)=O)cc5OC)n6CC(F)(F)F)CC4)cc3OC)nc2N1C1CCCC1 [p53-01, PMV6-PEG4-BI2536]",–,phenocopied BI2536,not in parental cells,6.9 fold
